Measured values reported in US10016382B2, “Method for decreasing skeletal muscle damage and/or oxidative stress in mammals” (LONZA INC., priority 2014, dated 2018).
Values joined by “and” are separate entries in the source; they are usually repeats but may differ in a detail not shown here. Identical values can stand only once.

Tested on: Labrador Retrievers
Experiment: Activity by Actical monitors, short (sprint) runs, Example 1
Assay type: in vivo, dog
Details: Ex.1, 250 mg/d; for Activity short runs, Least Sq Mean: average of weekly short runs over 13 wk, mixed model
Source text: Each test dog wore an Actical activity monitor from Philips Respironics on a collar for the short higher intensity runs and also wore an Actical activity monitor for the weekly longer endurance runs. The activity data was downloaded into spread sheets along with each dogs identity. Twenty four hours after each long run during the 13 wk running program each of the dogs were scored by kennel staff for soreness or any type of lameness The exercise program was decreased in a tapering program during wk 11 and 12 to allow the dogs to rest for the final long run completed on wk 13. Pre-run serum samples from each test dog was taken 24 hr before the last endurance run. The heart rate and basal body temperature was determined for each test dog prior to the last long endurance run. Exercise Regimen: Each group of dogs were put through two different types of exercise programs on a weekly basis. The exercise regimen consisted of both sprint (short runs) and endurance (long runs) type work during the 90 day period. Each group of dogs were put through a simulated amount of work that would be equal to competing in an AKC Junior Hunt Test (American […] Club) and also once a week the dogs were put through a simulated endurance run. Each group of test dogs ran the AKC Hunt Test workout 26 times during the 13 wk study which was 2 times per week. During each week, each group ran the test 2 times with 1 day rest between runs. The AKC Hunt Test workout during the initial week amounted to two days of 6 consecutive sprint type retrieves for a minimum of 100 yd each way making a total of 1200 yd per day or 2400 yd per wk. The dogs brought back a bumper (equivalent to a duck or mark) to the handler during the exercise. […] The length of time involved in the intense exercise simulating the AKC Hunt Test was approximately 10 to 15 minutes per dog each of the short run days and was equal for both treatments. The rest time between retrieves (sprints) in a set during the simulated weekly AKC Hunt Test was equal for all dogs. Performance and Recovery Time: An Actical monitor (Philips Respironics) was worn around the neck of each dog on a collar and utilized to evaluate the amount of movement (measured total movements and intensity) for each dog for the purpose of evaluating equal work between treatments and also to evaluate the individual work intensity while completing the daily retrieves. Each dog wore the Actical monitor for each long run and wore the Actical monitor for the final 15 mile run. The Actical monitor data was downloaded to a computer for evaluation. Statistical Methods: GraphPad Prism 6.0 was used to compare means between groups for run time, food intake, body weight, and changes in blood chemistry using an unpaired t-test. Results were considered significant if a p-value of 0.05 was obtained. JMP 10.0.2 was used to create a mixed model for long runs, short runs, body composition, and blood chemistry.

C[N+](C)(C)C[C@H](O)CC(=O)[O-] [L-carnitine]
Activity short runs, APM/lb Mean (Week 3, both sexes): 1479 Movements/Mile/LB BW
Activity short runs, APM/lb Mean (Week 3, females): 1636 Movements/Mile/LB BW
Activity short runs, APM/lb Mean (Week 3, males): 1338 Movements/Mile/LB BW
Activity short runs, APM/lb Mean (Week 4, both sexes): 1402 Movements/Mile/LB BW
Activity short runs, APM/lb Mean (Week 4, females): 1608 Movements/Mile/LB BW
Activity short runs, APM/lb Mean (Week 4, males): 1234 Movements/Mile/LB BW
Activity short runs, APM/lb Mean (Week 5, both sexes): 1314 Movements/Mile/LB BW
Activity short runs, APM/lb Mean (Week 5, females): 1362 Movements/Mile/LB BW
Activity short runs, APM/lb Mean (Week 5, males): 1275 Movements/Mile/LB BW
Activity short runs, APM/lb Mean (Week 6, both sexes): 1375 Movements/Mile/LB BW
Activity short runs, APM/lb Mean (Week 6, females): 1340 Movements/Mile/LB BW
Activity short runs, APM/lb Mean (Week 6, males): 1403 Movements/Mile/LB BW
Activity short runs, APM/lb Mean (Week 7, both sexes): 1380 Movements/Mile/LB BW
Activity short runs, APM/lb Mean (Week 7, females): 1347 Movements/Mile/LB BW
Activity short runs, APM/lb Mean (Week 7, males): 1407 Movements/Mile/LB BW
Activity short runs, APM/lb Mean (Week 8, both sexes): 1249 Movements/Mile/LB BW
Activity short runs, APM/lb Mean (Week 8, females): 1330 Movements/Mile/LB BW
Activity short runs, APM/lb Mean (Week 8, males): 1183 Movements/Mile/LB BW
Activity short runs, APM/lb Mean (Week 9, both sexes): 1234 Movements/Mile/LB BW
Activity short runs, APM/lb Mean (Week 9, females): 1388 Movements/Mile/LB BW
Activity short runs, APM/lb Mean (Week 9, males): 1108 Movements/Mile/LB BW
Activity short runs, APM/lb Mean (Week 10, both sexes): 1114 Movements/Mile/LB BW
Activity short runs, APM/lb Mean (Week 10, females): 1222 Movements/Mile/LB BW
Activity short runs, APM/lb Mean (Week 10, males): 1026 Movements/Mile/LB BW
Activity short runs, APM/lb Mean (Week 11, both sexes): 1111 Movements/Mile/LB BW
Activity short runs, APM/lb Mean (Week 11, females): 1128 Movements/Mile/LB BW
Activity short runs, APM/lb Mean (Week 11, males): 1098 Movements/Mile/LB BW
Activity short runs, APM/lb Mean (Week 12, both sexes): 2500 Movements/Mile/LB BW
Activity short runs, APM/lb Mean (Week 12, females): 2804 Movements/Mile/LB BW
Activity short runs, APM/lb Mean (Week 12, males): 2251 Movements/Mile/LB BW
Activity short runs, APM/lb Mean (Week 13, both sexes): 1741 Movements/Mile/LB BW
Activity short runs, APM/lb Mean (Week 13, females): 1661 Movements/Mile/LB BW
Activity short runs, APM/lb Mean (Week 13, males): 1806 Movements/Mile/LB BW
Activity short runs, Least Sq Mean (both sexes): 1451 Movements/Mile/LB BW and 1451.0357 Movements/Mile/LB BW
Activity short runs, Least Sq Mean (females): 1522 Movements/Mile/LB BW and 1528.6226 Movements/Mile/LB BW
Activity short runs, Least Sq Mean (males): 1373.4487 Movements/Mile/LB BW
